Data published in US20240279214A1, “ALPHA4 BETA7 INEGRIN ANTAGONISTS AND USES THEREOF” (XinThera, Inc., priority 2022, published 2024).
Where two headings read alike, the source gives them in different places.

Columns and labels:
[1] = ether bond, 13-membered ring, 100.0 °C
[2] = ether bond, 13-membered ring, CuI/K2CO3/(1R,2R)-N1,N2-dimethylcyclohexane-1,2-diamine, 1,4-dioxane, 100.0 °C

CCOC(=O)C[C@@H]1NC(=O)C(n2cc(CCN3CC(F)C3)c(C(F)(F)F)cc2=O)c2cccc(c2)Oc2cc(C3CC3)cc(C)c2-c2cc1c(F)c(C(F)(F)F)c2 (stereo partly shown)
ring closure, yield after HPLC ([1]; from CCOC(=O)C[C@H](NC(=O)C(c1cccc(Br)c1)n1cc(CCN2CC(F)C2)c(C(F)(F)F)cc1=O)c1cc(-c2c(C)cc(C3CC3)cc2O)cc(C(F)(F)F)c1F, CuI/(1R,2R)-N1,N2-dimethylcyclohexane-1,2-diamine/K2CO3, dioxane, 40.0 mM, 16.0 h): 31.4%

CCOC(=O)C[C@@H]1NC(=O)C(n2cc(CCN3CC(F)C3)c(C(F)(F)F)cc2=O)c2cccc(c2)Oc2cc(Cl)cc(C)c2-c2cc1c(F)c(C(F)(F)F)c2 (stereo partly shown)
ring closure, yield after HPLC ([1]; from CCOC(=O)C[C@H](NC(=O)C(c1cccc(Br)c1)n1cc(CCN2CC(F)C2)c(C(F)(F)F)cc1=O)c1cc(-c2c(C)cc(Cl)cc2O)cc(C(F)(F)F)c1F, CuI/(1R,2R)-N1,N2-dimethylcyclohexane-1,2-diamine/K2CO3, dioxane, 34.0 mM, 4.0 h): 33%

CCOC(=O)C[C@@H]1NC(=O)C(n2ccc3occc3c2=O)c2cc(ccc2F)Oc2cccc(C)c2-c2cc(C)c(F)c1c2 (stereo partly shown)
ring closure, yield after HPLC ([1]; from CCOC(=O)C[C@H](NC(=O)C(c1cc(Br)ccc1F)n1ccc2occc2c1=O)c1cc(-c2c(C)cccc2O)cc(C)c1F, CuI/(1S,2S)-N,N'-dimethylcyclohexane-1,2-diamine/K2CO3, dioxane, 30.0 mM, 4.0 h): 36.3%

CCOC(=O)C[C@@H]1NC(=O)C(n2cccc(-c3ccccc3)c2=O)c2cc(ccc2F)Oc2cccc(C)c2-c2cc(C)c(F)c1c2 (stereo partly shown)
ring closure, yield after HPLC ([1]; from CCOC(=O)C[C@H](NC(=O)C(c1cc(Br)ccc1F)n1cccc(-c2ccccc2)c1=O)c1cc(-c2c(C)cccc2O)cc(C)c1F, CuI/(1R,2R)-N,N'-dimethylcyclohexane-1,2-diamine/K2CO3, dioxane, 70.0 mM, 2.0 h): 48.2%

CCOC(=O)C[C@@H]1NC(=O)C(n2ccc3ccoc3c2=O)c2cc(ccc2F)Oc2cccc(C)c2-c2cc(C)c(F)c1c2 (stereo in doubt)
ring closure, yield after HPLC ([1]; from CCOC(=O)C[C@H](NC(=O)C(c1cc(Br)ccc1F)n1ccc2ccoc2c1=O)c1cc(-c2c(C)cccc2O)cc(C)c1F, CuI/(1R,2R)-N,N'-dimethylcyclohexane-1,2-diamine/K2CO3, 1,4-dioxane, 37.5 mM, 4.0 h): 50.9%

ethyl 2-[(14S,17S)-14-{5-[3-(azetidin-1-yl) propyl]-2-oxo-4-(trifluoromethyl) pyridin-1-yl}-12,19-difluoro-3,20-dimethyl-15-oxo-8-oxa-16-azatetracyclo [16.3.1.1^{9,13}.0^{2,7}] tricosa-1(22),2(7),3,5,9,11,13(23),18,20-nonaen-17-yl] acetate
ring closure, isolated yield ([2]; 46.7 mM): 62.8%

ethyl 2-[(14S,17S)-20-cyclopropyl-12,19-difluoro-3-methyl-15-oxo-14-[2-oxo-4-(trifluoromethyl) pyridin-1-yl]-8-oxa-16-azatetracyclo [16.3.1.1^{9,13}.0^{2,7}]tricosa-1(22),2(7),3,5,9,11,13(23),18,20-nonaen-17-yl]acetate
ring closure, isolated yield ([2]; 33.3 mM): 56.2%
